In paper PMC12480751, “A quantitative high-throughput screening pipeline to identify small molecule inhibitors of Chikungunya nsP2 protease” (Scientific Reports, 2025):
Entries after “also recorded” stand apart in the source; their conditions may differ. Where two headings read alike, the source gives them in different places.

Tests used:
FL nsP2 = FL nsP2 (Chikungunya virus, UniProt Q8JUX6, C1333A); details: for full-length nsP2 Vmax: 150 nM nsP2 (peptide 2) or 2 μM nsP2 (peptide 3); for Km: read-out: FL nsP2 Km; for Km / FL nsP2 kcat: substrate peptide
nsP2pro = nsP2pro (Chikungunya virus, UniProt Q8JUX6); details: for nsP2pro Vmax: 150 nM nsP2pro (peptide 2) or 2 μM nsP2pro (peptide 3); for Km: read-out: nsP2pro Km; for Km / nsP2pro kcat: substrate peptide
nsP2 protease = target: T1, nsP2 protease (Chikungunya virus, UniProt Q8JUX6); assay: cell-based; type: cell-based; details: for Emax: HEK293, read-out: Cell-based % Efficacy
T1 construct: expressed in transfected cells; host or cells: HEK293T (the results text says HEK293), transient co-transfection in pcDNA3.1(+)
T1 sequence (Q8JUX6 755-1333 limits assumed): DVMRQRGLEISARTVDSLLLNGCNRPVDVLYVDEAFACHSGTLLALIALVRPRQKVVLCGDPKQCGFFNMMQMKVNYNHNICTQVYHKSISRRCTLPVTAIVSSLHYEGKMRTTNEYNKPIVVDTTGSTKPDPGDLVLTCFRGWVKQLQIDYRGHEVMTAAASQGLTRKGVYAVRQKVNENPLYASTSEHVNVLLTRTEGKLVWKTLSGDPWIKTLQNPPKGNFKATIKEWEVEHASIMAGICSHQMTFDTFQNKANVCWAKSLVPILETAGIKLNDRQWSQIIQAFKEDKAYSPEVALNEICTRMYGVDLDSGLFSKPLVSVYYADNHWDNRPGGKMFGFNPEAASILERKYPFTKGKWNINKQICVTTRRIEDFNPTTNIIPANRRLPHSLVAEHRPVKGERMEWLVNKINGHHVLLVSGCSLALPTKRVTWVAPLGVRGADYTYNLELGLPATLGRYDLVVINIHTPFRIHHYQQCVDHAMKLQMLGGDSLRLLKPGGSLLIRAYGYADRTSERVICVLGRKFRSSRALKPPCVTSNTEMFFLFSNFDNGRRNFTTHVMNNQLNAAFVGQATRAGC

CHIKV nsP2pro = CHIKV nsP2pro (Chikungunya virus, UniProt Q8JUX6); assay: FRET-based nsP2pro proteolytic assay with peptide 2 (nsp3/4 site), 1,536-well qHTS; type: biochemical; details: for selectivity for nsP2pro versus Papain, hFurin and HCV NS3-4A: based on biochemical counterscreens; for Emax: read-out: Enzymatic % Efficacy; for inhibitory activity against CHIKV nsP2: biochemical assays
[1] = test system: CHIKV 181/25 vaccine strain; assay: CHIKV181/25 infection assay in SNB-19 cells, high-content immunofluorescence
human Furin = human Furin (Homo sapiens, UniProt P09958); assay: human Furin FRET selectivity counterscreen; type: biochemical
Sequence of human Furin (P09958 108-794): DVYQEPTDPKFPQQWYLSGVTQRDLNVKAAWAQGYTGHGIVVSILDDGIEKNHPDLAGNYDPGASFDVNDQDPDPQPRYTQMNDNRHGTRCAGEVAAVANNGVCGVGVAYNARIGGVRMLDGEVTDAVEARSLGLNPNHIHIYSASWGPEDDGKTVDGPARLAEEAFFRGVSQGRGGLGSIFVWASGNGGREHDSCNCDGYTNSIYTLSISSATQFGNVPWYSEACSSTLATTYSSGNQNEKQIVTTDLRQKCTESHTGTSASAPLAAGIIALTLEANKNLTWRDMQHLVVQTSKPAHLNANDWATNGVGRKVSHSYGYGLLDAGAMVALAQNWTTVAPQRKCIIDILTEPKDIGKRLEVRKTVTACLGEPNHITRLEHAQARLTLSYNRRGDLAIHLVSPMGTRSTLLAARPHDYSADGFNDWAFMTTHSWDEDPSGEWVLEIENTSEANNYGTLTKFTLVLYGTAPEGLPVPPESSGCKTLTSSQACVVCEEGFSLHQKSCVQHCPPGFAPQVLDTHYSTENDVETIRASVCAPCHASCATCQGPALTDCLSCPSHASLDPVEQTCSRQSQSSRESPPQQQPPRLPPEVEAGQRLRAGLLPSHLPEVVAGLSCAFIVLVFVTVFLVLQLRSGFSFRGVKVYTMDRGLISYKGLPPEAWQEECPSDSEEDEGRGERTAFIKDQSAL

[2] = CellTiter-Glo cell viability assay of SNB19 cells; type: cell-based, human; details: human, SNB19 cells
Procedure: Cells were harvested in growth media and dispensed (5 µL /1,000 cells/well) onto 1536-well white plates (Aurora #EWB041000A) using a Multidrop Combi. Control and test compounds were added (25 nL) using an Echo 650 liquid handler. Plates were incubated for 48 h at 37 °C and 5% CO2 and then equilibrated to room temperature prior to addition of 4 µL /well of CellTiter-Glo (Promega) using a Multidrop Combi. Plates were subsequently incubated for 15 min at room temperature and centrifuged for 1 min at 1000 rpm. Luminescence was read on a ViewLux imager equipped with clear filters.

Papain = Papain (Carica papaya, UniProt P00784)
Sequence of Papain (P00784 134-345): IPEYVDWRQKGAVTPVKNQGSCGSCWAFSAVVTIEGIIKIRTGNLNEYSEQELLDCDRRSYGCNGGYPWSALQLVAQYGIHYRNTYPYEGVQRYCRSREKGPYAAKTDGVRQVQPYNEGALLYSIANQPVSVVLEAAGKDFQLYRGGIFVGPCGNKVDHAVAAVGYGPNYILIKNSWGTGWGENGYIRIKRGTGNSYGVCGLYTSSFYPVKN

[3] = nsP2pro biochemical assay, 13 cell-active hits
[4] = nsP2pro biochemical assay, 13 cell-active hits, read-out: Enzymatic IC50

For “5-TAMRA-DELRLDRAGGYIFSS-K-QSY7 [Peptide 2]”, the “full-length nsP2 Vmax” value (FL nsP2) was 0.2 µM/min, the Km (FL nsP2) was 1.1 µM and the “FL nsP2 kcat” value (FL nsP2) was 167.2 ± 10.4 s⁻¹. For the same compound, the “nsP2pro Vmax” value (nsP2pro) was 0.26 µM/min, the Km (nsP2pro) was 6.3 µM and the nsP2pro kcat (nsP2pro) was 214.2 ± 13.1 x 10^-4 sec^-1.
In the case of `COc1cccc(C(=O)CCN[C@@H](C)[C@H](O)c2ccccc2)c1` [Oxyfedrine], the AC50 (nsP2 protease) is reported as 2.6 µM, the Emax (nsP2 protease) is reported as 60.3% and the IC50 (CHIKV nsP2pro) is reported as 1.3 µM. For the same compound, the “selectivity for nsP2pro versus Papain, hFurin and HCV NS3-4A” value (shortened to “selectivity for nsP2pro versus Papain”) (CHIKV nsP2pro) was “selective hits; also recorded: specific to nsP2pro” and the Emax (CHIKV nsP2pro) was -88.6%.
`C/C(=N\NC(=N)N)c1cc(NC(=O)CCCCCCCCC(=O)Nc2cc(/C(C)=N/NC(=N)N)cc(/C(C)=N/NC(=N)N)c2)cc(/C(C)=N/NC(=N)N)c1` [Semapimod] showed an AC50 (nsP2 protease) of 2.2 µM, an Emax (nsP2 protease) of 137% and an IC50 ([1]; Chikungunya virus, SNB-19, 44 h, read-out: IC50, prevention of CHIKV infection) of 1.6 µM. The “potency on CHIKV infection relative to effect on cell viability” value ([1]; IC50 infection vs CC50 SNB19) was “> tenfold”, the “activity against Furin” value (human Furin) was “weak activity” and the CC50 at 48 h [2] was 20.6 µM. The IC50 (CHIKV nsP2pro) was 6.3 µM, the “selectivity for nsP2pro versus Papain” value (CHIKV nsP2pro) was “not selective” and the Emax (CHIKV nsP2pro) was -106%. The “activity against HCV NS3-4A” value (HCV NS3-4A) was “also inhibited”.
For `CC(NC(=O)[C@H](Cc1ccccc1)NC(=O)OCc1ccccc1)C(=O)CF` (stereo partly shown) [Z-FA-FMK], the “activity against Papain” value (Papain) was “potently inhibiting” and the “inhibitory activity against CHIKV nsP2” value (CHIKV nsP2pro) was “minimal inhibitory activity”.
With `Cc1cccc(C(=O)Nc2ccc(N3CCN(c4ccc(F)cc4)CC3)c(C(=O)O)c2)c1` [NCGC00137618] the “Cell-based % Efficacy” value (nsP2 protease) was 55.5%, the AC50 (nsP2 protease; read-out: Cell-based AC50) was 32.6 µM and the “Enzymatic % Efficacy” value (CHIKV nsP2pro; [3]) was -83%. It also gave an IC50 (CHIKV nsP2pro; [4]) of 10 µM.
In the case of `C#CC(=O)N(c1ccc(OC)cc1OC)C(C(=O)NCC(=O)OCC)c1cccs1` (stereo not shown) [PACMA 31], the “selectivity for nsP2pro versus Papain” value (CHIKV nsP2pro) is reported as “selective hits”.
With `CCCS(=O)(=O)c1ncc(Cl)c(C(=O)N(Cc2ccccc2)Cc2ccco2)n1` [NCGC00115102] the “selectivity for nsP2pro versus Papain” value (CHIKV nsP2pro) was “specific to nsP2pro”.
For `C[C@H](N)[C@H](O)c1ccc(O)c(O)c1` [Levonordefrin], the AC50 (nsP2 protease) was 0.4 µM, the Emax (nsP2 protease) was 71.5% and the IC50 (CHIKV nsP2pro) was 7.7 µM. The “selectivity for nsP2pro versus Papain” value (CHIKV nsP2pro) was “not selective”, the Emax (CHIKV nsP2pro) was -74.9% and the “activity against HCV NS3-4A” value (HCV NS3-4A) was “also inhibited”.
With `O=C(O[C@@H]1Cc2c(O)cc(O)cc2O[C@@H]1c1cc(O)c(O)c(O)c1)c1cc(O)c(O)c(O)c1` [EGCG, Epigallocatechin gallate] the “effect on Nluc reporter signal in cellular nsp2 proteolytic assay” value (nsP2 protease) was “did not have an effect”, the “effect on CHIKV infection” value ([1]; SNB-19 cells) was “strongly prevented CHIKV infection” and the “inhibitory activity against CHIKV nsP2” value (CHIKV nsP2pro) was “inhibited nsp2pro activity in vitro”.
For `Cc1cccc(-c2noc([C@@H]3Cc4nc[nH]c4CN3C(=O)NC3CCCCC3)n2)c1` [NCGC00400417], the “Cell-based % Efficacy” value (nsP2 protease) was 75.7%, the AC50 (nsP2 protease; read-out: Cell-based AC50) was 47.2 µM and the “selectivity for nsP2pro versus Papain” value (CHIKV nsP2pro) was “not selective”. For the same compound, the “Enzymatic % Efficacy” value (CHIKV nsP2pro; [3]) was -107.3% and the IC50 (CHIKV nsP2pro; [4]) was 2.1 µM.
In the case of `Cc1ccc(OCCn2c(CCNC(=O)c3ccccc3N)nc3ccccc32)cc1` [NCGC00241881], the “Cell-based % Efficacy” value (nsP2 protease) is reported as 179%, the AC50 (nsP2 protease; read-out: Cell-based AC50) is reported as greater than 50 µM and the “selectivity for nsP2pro versus Papain” value (CHIKV nsP2pro) is reported as “not selective”. For the same compound, the “Enzymatic % Efficacy” value (CHIKV nsP2pro; [3]) was -106.1% and the IC50 (CHIKV nsP2pro; [4]) was 1.1 µM.
Work on `Nc1nc2c(s1)CCN(Cc1ccc(Cl)cc1)CC2` [B-HT 958] yielded an AC50 (nsP2 protease) of 0.23 µM, an Emax (nsP2 protease) of 114% and an IC50 (CHIKV nsP2pro) of 7.9 µM. For the same compound, the “selectivity for nsP2pro versus Papain” value (CHIKV nsP2pro) was “specific to nsP2pro” and the Emax (CHIKV nsP2pro) was -62.1%.
`O=c1oc2c3c(ccc2c2ccccc12)OCN(Cc1ccc(Cl)cc1)C3` [NCGC00116366] gave an AC50 (nsP2 protease) of 36.5 µM, an Emax (nsP2 protease) of 309% and an IC50 (CHIKV nsP2pro) of 4.5 µM. For the same compound, the Emax (CHIKV nsP2pro) was -114%.
For `CC(C)N(CCC(=O)c1ccc2ccccc2c1)Cc1ccccc1` [ZM39923], the “selectivity for nsP2pro versus Papain” value (CHIKV nsP2pro) was “selective hits”.
For `CCC[C@H](NC(=O)[C@@H]1[C@H]2CCC[C@H]2CN1C(=O)[C@@H](NC(=O)[C@@H](NC(=O)c1cnccn1)C1CCCCC1)C(C)(C)C)C(=O)C(=O)NC1CC1` [Telaprevir], the AC50 (nsP2 protease) was 31.6 µM, the Emax (nsP2 protease) was 213% and the “activity against Papain” value (Papain) was “potently inhibiting”. The CC50 at 48 h [2] was 11.6 µM, the IC50 (CHIKV nsP2pro) was 3.5 µM and the “selectivity for nsP2pro versus Papain” value (CHIKV nsP2pro) was “not selective”. For the same compound, the Emax (CHIKV nsP2pro) was -123% and the “activity against HCV NS3-4A” value (HCV NS3-4A) was “potently inhibiting; also recorded: also inhibited”.
With `CCCCN(CCCC)C(=S)[S-].CCCCN(CCCC)C(=S)[S-].[Zn+2]` [Zinc dibutyldithiocarbamate] the “activity against Papain” value (Papain) was “potent inhibitor”, the “effect on CHIKV infection” value ([1]; SNB-19 cells) was “difficult to distinguish from cell toxicity” and the “activity against Furin” value (human Furin) was “either weak or had no effect”. The “inhibitory activity against CHIKV nsP2” value (CHIKV nsP2pro) was “potent inhibitor” and the “activity against HCV NS3-4A” value (HCV NS3-4A) was “either weak or had no effect”.
With `CCOc1ccc(NC(=O)c2c(NC(=O)Cc3ccccc3)sc3c2CCCCC3)cc1` [NCGC00098557] the “Cell-based % Efficacy” value (nsP2 protease) was 101.3%, the AC50 (nsP2 protease; read-out: Cell-based AC50) was 12.9 µM and the “Enzymatic % Efficacy” value (CHIKV nsP2pro; [3]) was -80.1%. The IC50 (CHIKV nsP2pro; [4]) was 7.9 µM.
For `COC(=O)CC[C@H](NC(=O)[C@H](CC(=O)OC)NC(=O)OCc1ccccc1)C(=O)N[C@H](C(=O)N[C@@H](CC(=O)OC)C(=O)CF)C(C)C` [Z-DEVD-FMK], the “inhibitory activity against CHIKV nsP2” value (CHIKV nsP2pro) was “did not identify”.
With `O=c1oc2c3c(ccc2c2ccccc12)OCN(Cc1ccccc1Cl)C3` [NCGC00116374] the AC50 (nsP2 protease) was 14.5 µM, the Emax (nsP2 protease) was 112% and the IC50 (CHIKV nsP2pro) was 4 µM. The “selectivity for nsP2pro versus Papain” value (CHIKV nsP2pro) was “specific to nsP2pro” and the Emax (CHIKV nsP2pro) was -103%.
In the case of `Nc1ccn([C@@H]2O[C@H](CO)[C@@H](O)C2(F)F)c(=O)n1` [Gemcitabine], the “concentrations showing consistent CHIKV inhibition” value ([1]; SNB-19 cells, infection inhibition control) is reported as “under 1 µM”.
For TMR-DELRLDRAGC/APSYR-K-QSY7 [Peptide 3], the “full-length nsP2 Vmax” value (FL nsP2) was 0.38 µM/min, the Km (FL nsP2) was 37.5 µM and the “FL nsP2 kcat” value (FL nsP2) was 32.1 ± 2.1 s⁻¹. For the same compound, the “nsP2pro Vmax” value (nsP2pro) was 1.03 µM/min, the Km (nsP2pro) was 81.9 µM and the nsP2pro kcat (nsP2pro) was 85.5 ± 4.1 x 10^-4 sec^-1.
